Measurements published in BindingDB's records for doi:10.1038/nchembio.2168 (Novartis Institutes, 2016).
pIC50: −log10 of the molar value.

What was measured:
[1] = target: T1, Serine/threonine-protein kinase WNK1 [1-444] (Homo sapiens, UniProt Q9H4A3); test: In vitro MBP Phosphorylation Assay (MBP); conditions: pH 7.3; 25 °C
T1 construct: 1-444
Description: (§1) Each well of the MBP-coated ScintiPlates held 100 ul of a solution containing 20 mM HEPES pH 7.3, 5 mM MnCl2 (WNK1 and WNK4) or 3 mM MnCl2 (WNK2 and WNK3), 0.01% Tween-20 (WNK1, WNK3 and WNK4) or 0.02% Tween-20 (WNK2), 1 mM TCEP, 2% DMSO, 1 uM ATP (WNK1, WNK3 and WNK4) or 2 uM ATP (WNK2), 1 uCi [gamma-33P]ATP (WNK1, WNK2, WNK4) or 0.25 uCi [gamma-33P]ATP (WNK3), WNK kinase enzyme (5 nM WNK1, 10 nM WNK2, 5 nM WNK3 or 10 nM WNK4) and compound at the desired concentration. The plate was sealed with a clear adhesive cover and mixed for 20 s at 800 r.p.m. on a bench top plate shaker. The plate was then placed in a 25 °C shaking incubator at 175 r.p.m for 3 h (WNK1 and WNK4), 2 h (WNK3) or 1 h (WNK2). The kinase reaction was stopped by the addition of 50 ul of 45 mM EDTA, 0.01% Tween-20, and 20 mM HEPES, pH 7.3. The content of each well was then aspirated, and the well was washed three times with 300 ul of 150 mM NaCl, 0.02% Tween-20, and 50 mM Tris-HCl pH 7.4. Incorporation of 33P into the bound MBP substrate was measured using a MicroBeta TriLux LSC and Luminescence plate counter.

[2] = target: T2, Serine/threonine-protein kinase WNK1 [166-489] (Homo sapiens, UniProt Q9H4A3); test: In vitro MBP Phosphorylation Assay (MBP); conditions: pH 7.3; 25 °C
T2 construct: 166-489
Description: as §1

[3] = target: T3, Serine/threonine-protein kinase WNK1 [1-491] (Homo sapiens, UniProt Q9H4A3); test: In vitro MBP Phosphorylation Assay (MBP); conditions: pH 7.3; 25 °C
T3 construct: 1-491
Description: as §1

[4] = target: T4, Serine/threonine-protein kinase WNK1 [1-434] (Homo sapiens, UniProt Q9H4A3); test: In vitro MBP Phosphorylation Assay (MBP); conditions: pH 7.3; 25 °C
T4 construct: 1-434
Description: as §1

[5] = target: T3, Serine/threonine-protein kinase WNK1 [1-491]; test: In vitro OSR1 Phosphorylation Assay (OSR1); conditions: pH 7.3; 4 °C
Description: 0.2 nM GST-hWNK1(1-491) (Carna Biosciences, cat# 05-179); 3.5 ug/ml GST-OSR1; 20 mM HEPES; 0.01% Tween; 5 mM MnCl2; 1 mM TCEP; 2% DMSO; 0.5 uM ATP, pH 7.3 (total volume 40 ul) were incubated for 15 min at room temperature. Samples were […] mixed with Laemmli sample buffer and resolved on a 10% Tris-glycine gel, and transferred to nitrocellulose. Membranes were blocked in 5% non-fat milk dissolved in Tris-buffered saline with tween (TBST) for 30 min, washed 3x for 10 min in TBST and incubated with phospho-OSR1 antibody (1:1,000; see Reagents section) at […] overnight. Blots were again washed with TBST and incubated with HRP-conjugated anti-rabbit IgG (1:2,500; catalog # 7074, Cell Signaling) at room temperature for 30 min. Blots were again washed and developed with SuperSignal West Femto Maximum Sensitivity Chemiluminescent Substrate for HRP (Thermo Scientific), and quantified with a Fujifilm LAS-3000 Luminescent Image Analyzer.

T3 sequence (Q9H4A3 1-491): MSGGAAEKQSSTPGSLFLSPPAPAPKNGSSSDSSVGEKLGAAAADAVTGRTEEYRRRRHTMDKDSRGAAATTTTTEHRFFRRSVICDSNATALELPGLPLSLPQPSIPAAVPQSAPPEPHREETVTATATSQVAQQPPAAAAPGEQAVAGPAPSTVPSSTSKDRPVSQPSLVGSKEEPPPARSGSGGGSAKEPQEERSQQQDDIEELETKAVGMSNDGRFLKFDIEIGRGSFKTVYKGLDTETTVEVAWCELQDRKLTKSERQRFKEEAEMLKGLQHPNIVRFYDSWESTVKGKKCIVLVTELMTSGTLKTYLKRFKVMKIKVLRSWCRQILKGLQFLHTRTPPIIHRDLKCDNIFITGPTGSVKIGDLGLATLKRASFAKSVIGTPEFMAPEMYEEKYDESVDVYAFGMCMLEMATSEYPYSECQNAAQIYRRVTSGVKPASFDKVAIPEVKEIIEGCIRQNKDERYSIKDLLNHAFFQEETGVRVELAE
T2 sequence (Q9H4A3 166-489): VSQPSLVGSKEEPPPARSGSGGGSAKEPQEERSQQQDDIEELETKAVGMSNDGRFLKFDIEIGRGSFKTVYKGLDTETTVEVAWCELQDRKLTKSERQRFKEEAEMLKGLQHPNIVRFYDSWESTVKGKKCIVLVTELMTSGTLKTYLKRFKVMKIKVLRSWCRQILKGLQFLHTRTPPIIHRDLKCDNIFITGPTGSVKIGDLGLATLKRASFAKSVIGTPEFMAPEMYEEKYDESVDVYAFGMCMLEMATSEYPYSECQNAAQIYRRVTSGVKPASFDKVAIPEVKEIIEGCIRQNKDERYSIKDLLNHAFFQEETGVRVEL
T4 sequence (Q9H4A3 1-434): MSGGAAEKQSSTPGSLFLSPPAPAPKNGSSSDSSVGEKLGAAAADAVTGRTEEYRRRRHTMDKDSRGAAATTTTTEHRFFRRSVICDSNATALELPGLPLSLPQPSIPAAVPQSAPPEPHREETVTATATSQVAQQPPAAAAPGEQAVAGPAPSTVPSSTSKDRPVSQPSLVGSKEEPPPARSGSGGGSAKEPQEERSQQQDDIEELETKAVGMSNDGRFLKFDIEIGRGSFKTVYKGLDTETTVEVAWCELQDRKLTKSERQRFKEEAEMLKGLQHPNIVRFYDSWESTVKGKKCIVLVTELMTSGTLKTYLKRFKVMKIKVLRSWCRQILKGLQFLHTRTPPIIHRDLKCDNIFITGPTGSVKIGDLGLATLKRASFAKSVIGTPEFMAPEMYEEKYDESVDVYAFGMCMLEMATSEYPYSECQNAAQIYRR
T1 sequence (Q9H4A3 1-444): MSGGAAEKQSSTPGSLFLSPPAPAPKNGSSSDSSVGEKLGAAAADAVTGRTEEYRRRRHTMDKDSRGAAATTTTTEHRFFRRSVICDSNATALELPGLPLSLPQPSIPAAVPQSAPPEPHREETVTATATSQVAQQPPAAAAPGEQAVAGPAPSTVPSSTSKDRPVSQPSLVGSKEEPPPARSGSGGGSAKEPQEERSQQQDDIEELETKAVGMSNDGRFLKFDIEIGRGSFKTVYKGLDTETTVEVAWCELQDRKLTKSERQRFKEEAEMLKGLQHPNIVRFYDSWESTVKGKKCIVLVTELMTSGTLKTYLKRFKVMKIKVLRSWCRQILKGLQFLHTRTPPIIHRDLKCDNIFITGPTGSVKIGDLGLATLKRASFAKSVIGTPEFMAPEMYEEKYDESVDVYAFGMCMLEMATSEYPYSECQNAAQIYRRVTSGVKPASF

Row | SMILES | pIC50 [1] | pIC50 [2] | pIC50 [3] | pIC50 [4] | pIC50 [5]
1 | CC(C)(C)NC(=O)c1cncn1C1CCN(c2ccc(-c3nnc(C(F)(F)F)o3)cc2)CC1 [WNK463 (2)] | 8.05 | 9.00 | 8.30 | 8.22 | 7.39
2 | COc1ccc(CC(=O)N2CCC(n3cncc3C(=O)NCCc3ccccc3)C2)cc1 [(R)-1-(1-(2-(4-methoxyphenyl)acetyl)pyrrolidin-3-yl)-N-phenethyl-1H-imidazole-5-carboxamide (1)] |  |  | 6.07 |  | 
